Results from ChEMBL document CHEMBL5678818, “Discovery of potent SOS1 inhibitors that block RAS activation via disruption of the RAS-SOS1 interaction” (Proc Natl Acad Sci U S A, 2019).

Legend:
[1] = target: Serine/threonine-protein kinase WNK4 (Homo sapiens) (UniProt Q96J92); experiment: Inhibition of WNK4 (unknown origin) assessed as residual activity at 1000 nM by KINOMEscan analysis relative to control
[2] = target: Cyclin-dependent kinase-like 1 (Homo sapiens) (UniProt Q00532); experiment: Inhibition of CDKL1 (unknown origin) assessed as residual activity at 100 nM by KINOMEscan analysis relative to control
Cyclin-dependent kinase-like 1 (Homo sapiens), sequence (Q00532 whole entry): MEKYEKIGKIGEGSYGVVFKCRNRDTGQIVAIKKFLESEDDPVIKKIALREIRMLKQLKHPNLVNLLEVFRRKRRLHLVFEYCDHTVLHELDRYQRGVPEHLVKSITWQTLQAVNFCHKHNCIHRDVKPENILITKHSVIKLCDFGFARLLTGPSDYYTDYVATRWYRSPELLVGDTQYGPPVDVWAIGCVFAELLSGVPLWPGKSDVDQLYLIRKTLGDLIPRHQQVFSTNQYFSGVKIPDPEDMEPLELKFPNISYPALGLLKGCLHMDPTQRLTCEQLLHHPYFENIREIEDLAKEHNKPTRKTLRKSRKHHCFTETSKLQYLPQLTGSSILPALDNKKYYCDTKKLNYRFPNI

[3] = target: T1, Cyclin-G-associated kinase (Homo sapiens) (UniProt O14976); experiment: Inhibition of GAK (unknown origin) assessed as residual activity at 100 nM by KINOMEscan analysis relative to control
T1 sequence (whole entry): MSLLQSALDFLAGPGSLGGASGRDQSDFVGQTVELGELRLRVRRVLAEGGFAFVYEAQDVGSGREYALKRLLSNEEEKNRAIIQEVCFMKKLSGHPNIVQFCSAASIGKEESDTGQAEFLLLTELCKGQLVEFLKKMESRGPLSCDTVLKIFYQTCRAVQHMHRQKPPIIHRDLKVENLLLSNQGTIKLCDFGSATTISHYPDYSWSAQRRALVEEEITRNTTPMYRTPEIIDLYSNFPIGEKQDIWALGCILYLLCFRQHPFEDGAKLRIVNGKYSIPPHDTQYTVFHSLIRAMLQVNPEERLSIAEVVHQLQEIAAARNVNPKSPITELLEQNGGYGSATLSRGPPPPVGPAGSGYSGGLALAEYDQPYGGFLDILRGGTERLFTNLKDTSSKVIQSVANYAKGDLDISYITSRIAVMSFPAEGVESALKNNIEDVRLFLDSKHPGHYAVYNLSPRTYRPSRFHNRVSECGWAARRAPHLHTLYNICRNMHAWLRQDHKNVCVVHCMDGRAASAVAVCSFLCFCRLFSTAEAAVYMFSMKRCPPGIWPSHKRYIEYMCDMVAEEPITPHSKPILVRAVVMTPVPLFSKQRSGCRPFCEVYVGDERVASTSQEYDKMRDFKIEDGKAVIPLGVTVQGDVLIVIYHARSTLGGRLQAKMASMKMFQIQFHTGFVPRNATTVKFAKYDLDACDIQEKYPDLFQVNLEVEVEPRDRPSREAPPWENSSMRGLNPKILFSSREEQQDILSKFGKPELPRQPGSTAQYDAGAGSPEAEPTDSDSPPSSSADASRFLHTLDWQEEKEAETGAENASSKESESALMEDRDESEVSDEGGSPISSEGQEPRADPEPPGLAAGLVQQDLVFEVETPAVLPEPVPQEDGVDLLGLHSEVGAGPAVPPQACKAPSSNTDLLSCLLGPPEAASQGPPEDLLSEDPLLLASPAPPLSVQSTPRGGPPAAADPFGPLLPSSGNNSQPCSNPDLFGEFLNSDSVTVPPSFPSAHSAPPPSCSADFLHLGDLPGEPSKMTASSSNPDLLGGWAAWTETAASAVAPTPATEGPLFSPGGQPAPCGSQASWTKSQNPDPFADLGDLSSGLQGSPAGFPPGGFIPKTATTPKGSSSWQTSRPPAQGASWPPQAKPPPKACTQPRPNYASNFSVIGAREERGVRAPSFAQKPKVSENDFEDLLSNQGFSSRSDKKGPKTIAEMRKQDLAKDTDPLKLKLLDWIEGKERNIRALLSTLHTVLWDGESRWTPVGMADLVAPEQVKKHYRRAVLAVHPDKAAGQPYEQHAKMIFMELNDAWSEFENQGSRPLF

[4] = target: Mitogen-activated protein kinase kinase kinase kinase 1 (Homo sapiens) (UniProt Q92918); experiment: Inhibition of HPK1 (unknown origin) assessed as residual activity at 100 nM by KINOMEscan analysis relative to control
Mitogen-activated protein kinase kinase kinase kinase 1 (Homo sapiens), sequence (Q92918 whole entry, looked up): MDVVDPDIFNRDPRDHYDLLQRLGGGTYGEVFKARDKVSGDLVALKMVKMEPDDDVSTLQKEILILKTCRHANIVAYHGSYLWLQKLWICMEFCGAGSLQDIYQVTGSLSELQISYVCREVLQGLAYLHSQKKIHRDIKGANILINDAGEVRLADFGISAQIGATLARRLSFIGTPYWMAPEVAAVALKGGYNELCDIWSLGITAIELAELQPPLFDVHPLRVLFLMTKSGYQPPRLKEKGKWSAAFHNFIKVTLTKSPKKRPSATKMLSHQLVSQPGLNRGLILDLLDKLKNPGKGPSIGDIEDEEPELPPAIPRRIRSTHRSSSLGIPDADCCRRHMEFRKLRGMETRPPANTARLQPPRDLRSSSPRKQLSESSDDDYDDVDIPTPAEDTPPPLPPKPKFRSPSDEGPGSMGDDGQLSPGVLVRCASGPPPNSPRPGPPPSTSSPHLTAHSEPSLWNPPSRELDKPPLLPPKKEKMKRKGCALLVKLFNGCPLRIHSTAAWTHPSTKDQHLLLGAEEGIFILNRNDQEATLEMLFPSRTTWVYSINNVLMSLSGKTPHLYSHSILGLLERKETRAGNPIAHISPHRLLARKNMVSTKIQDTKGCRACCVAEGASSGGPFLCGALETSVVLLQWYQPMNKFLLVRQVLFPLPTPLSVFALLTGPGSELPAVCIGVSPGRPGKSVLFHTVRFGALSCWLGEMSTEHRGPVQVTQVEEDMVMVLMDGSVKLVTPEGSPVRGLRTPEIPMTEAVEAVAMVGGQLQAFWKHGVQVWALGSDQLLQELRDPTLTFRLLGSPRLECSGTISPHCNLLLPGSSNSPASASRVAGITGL

[5] = target: Serine/threonine-protein kinase mTOR (Homo sapiens) (UniProt P42345); experiment: Inhibition of MTOR (unknown origin) assessed as residual activity at 100 nM by KINOMEscan analysis relative to control
[6] = target: T2, Phosphorylase b kinase gamma catalytic chain, liver/testis isoform (Homo sapiens) (UniProt P15735); experiment: Inhibition of PHKG2 (unknown origin) assessed as residual activity at 100 nM by KINOMEscan analysis relative to control
T2 sequence (whole entry): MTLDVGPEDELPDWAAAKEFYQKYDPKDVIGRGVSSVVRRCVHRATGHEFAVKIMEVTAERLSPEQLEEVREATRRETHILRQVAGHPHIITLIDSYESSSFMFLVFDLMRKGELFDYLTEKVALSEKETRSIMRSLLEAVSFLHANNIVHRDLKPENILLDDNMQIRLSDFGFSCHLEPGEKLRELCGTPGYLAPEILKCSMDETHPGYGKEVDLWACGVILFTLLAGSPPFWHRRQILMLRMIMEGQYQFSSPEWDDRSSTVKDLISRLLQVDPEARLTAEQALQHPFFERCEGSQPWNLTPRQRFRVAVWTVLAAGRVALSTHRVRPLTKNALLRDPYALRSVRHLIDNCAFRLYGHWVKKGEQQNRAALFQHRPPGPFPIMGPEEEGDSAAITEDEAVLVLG

[7] = target: T3, Serine/threonine-protein kinase D2 (Homo sapiens) (UniProt Q9BZL6); experiment: Inhibition of PRKD2 (unknown origin) assessed as residual activity at 100 nM by KINOMEscan analysis relative to control
T3 sequence (whole entry): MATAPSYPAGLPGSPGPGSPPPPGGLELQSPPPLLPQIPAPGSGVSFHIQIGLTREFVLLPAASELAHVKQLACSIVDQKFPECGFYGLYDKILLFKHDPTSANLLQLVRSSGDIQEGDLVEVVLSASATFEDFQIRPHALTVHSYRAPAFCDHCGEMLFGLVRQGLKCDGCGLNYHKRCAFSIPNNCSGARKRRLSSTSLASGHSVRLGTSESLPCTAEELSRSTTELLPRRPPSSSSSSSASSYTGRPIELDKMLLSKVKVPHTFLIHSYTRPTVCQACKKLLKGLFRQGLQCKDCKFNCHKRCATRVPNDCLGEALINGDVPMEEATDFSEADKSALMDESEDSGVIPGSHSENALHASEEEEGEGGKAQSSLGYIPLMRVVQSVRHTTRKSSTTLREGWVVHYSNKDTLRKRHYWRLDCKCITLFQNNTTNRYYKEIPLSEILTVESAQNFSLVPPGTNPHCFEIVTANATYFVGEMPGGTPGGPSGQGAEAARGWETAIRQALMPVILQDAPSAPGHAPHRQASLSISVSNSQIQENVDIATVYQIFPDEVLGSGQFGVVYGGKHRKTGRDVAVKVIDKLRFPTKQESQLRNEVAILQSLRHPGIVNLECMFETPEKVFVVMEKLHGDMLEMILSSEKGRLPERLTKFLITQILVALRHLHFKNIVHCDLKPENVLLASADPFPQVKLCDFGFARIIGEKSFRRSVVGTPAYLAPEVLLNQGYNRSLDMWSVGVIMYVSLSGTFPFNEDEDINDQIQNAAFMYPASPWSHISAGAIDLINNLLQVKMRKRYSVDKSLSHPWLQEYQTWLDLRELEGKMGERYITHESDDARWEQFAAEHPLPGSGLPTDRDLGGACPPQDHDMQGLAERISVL

Serine/threonine-protein kinase WNK4 (Homo sapiens), sequence (Q96J92 whole entry): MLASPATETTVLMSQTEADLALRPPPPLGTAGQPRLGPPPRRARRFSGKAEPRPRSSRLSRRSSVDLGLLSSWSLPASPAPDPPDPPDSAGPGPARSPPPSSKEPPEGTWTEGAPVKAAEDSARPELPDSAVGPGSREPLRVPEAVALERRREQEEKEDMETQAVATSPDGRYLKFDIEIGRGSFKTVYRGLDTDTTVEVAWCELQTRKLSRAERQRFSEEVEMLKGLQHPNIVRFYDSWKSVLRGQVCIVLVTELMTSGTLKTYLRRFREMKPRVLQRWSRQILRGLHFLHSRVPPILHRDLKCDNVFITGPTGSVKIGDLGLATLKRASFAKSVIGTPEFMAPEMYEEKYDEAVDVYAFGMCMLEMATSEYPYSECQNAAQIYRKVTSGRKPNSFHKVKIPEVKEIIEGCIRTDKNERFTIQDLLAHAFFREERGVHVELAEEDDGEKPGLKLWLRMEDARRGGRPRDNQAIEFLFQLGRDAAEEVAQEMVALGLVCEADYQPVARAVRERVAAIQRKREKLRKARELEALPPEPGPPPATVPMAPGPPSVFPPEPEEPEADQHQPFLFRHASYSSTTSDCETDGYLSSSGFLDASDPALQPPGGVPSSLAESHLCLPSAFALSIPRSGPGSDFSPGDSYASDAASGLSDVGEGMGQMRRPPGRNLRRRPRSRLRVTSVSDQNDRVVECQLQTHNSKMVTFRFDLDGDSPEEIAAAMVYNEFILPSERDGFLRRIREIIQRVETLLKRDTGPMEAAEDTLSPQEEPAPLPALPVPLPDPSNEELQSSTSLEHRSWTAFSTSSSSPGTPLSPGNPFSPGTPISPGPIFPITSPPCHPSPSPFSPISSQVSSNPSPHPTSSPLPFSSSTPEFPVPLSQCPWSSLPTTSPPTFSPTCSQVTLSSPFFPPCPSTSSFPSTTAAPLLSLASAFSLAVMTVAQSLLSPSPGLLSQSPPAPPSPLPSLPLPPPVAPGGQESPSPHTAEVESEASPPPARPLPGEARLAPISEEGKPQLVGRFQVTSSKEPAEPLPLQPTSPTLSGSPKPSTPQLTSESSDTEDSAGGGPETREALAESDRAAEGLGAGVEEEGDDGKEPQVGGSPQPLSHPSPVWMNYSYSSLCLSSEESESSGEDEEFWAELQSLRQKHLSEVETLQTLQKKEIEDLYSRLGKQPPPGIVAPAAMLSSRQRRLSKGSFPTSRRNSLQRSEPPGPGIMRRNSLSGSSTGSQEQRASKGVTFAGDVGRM

SMILES | Activity [1] [%] | Activity [2] [%] | Activity [3] [%] | Activity [4] [%] | Activity [5] [%] | Activity [6] [%] | Activity [7] [%]
COc1cc2nc(C)nc(N[C@H](C)c3cccc(-c4cn[nH]c4)c3)c2cc1OC | 100 |  |  |  |  |  | 
COc1cc2ncnc(N[C@H](C)c3cccc4ccccc34)c2cc1OC |  | 70 | 100 | 81 | 82 | 100 | 80
